Measurements from ChEMBL document CHEMBL3352545, “Two new unusual monoterpene acid glycosides from Acacia cyclops with potential cytotoxic activity” (2014).

How the values were obtained:
[1] = test system: MCF7; assay: Growth inhibition of human MCF7 cells at 50 ug/mL by MTT assay; type: functional; details: read-out: GI
[2] = test system: OVCAR; assay: Growth inhibition of human OVCAR cells at 50 ug/mL by MTT assay; type: functional; details: read-out: GI

Which inhibition of growth at 50 µg/mL [1] does the source give for `C=CC(C)(CC/C=C(\C)C(=O)O)O[C@@H]1O[C@H](CO)[C@@H](OC(C)(C=C)CC/C=C(/C)C(=O)O)[C@H](O)[C@H]1O` (some centres undefined) here?
Its inhibition of growth at 50 µg/mL is 98.9%.

What about the inhibition of growth at 50 µg/mL [2] of the same compound?
The inhibition of growth at 50 µg/mL was 77.7%.

Which results are given for `C=CC(C)(CC/C=C(\C)C(=O)O)O[C@@H]1O[C@@H](C)[C@H](OC(C)(C=C)CC/C=C(\C)C(=O)O)[C@@H](O)[C@H]1O` (some centres undefined)?
inhibition of growth at 50 µg/mL [1]: 68.2%; inhibition of growth at 50 µg/mL [2]: 66.5%
